# Laboratory results taken from ChEMBL document CHEMBL5291721, “A preclinical secondary pharmacology resource illuminates target-adverse drug reaction associations of marketed drugs” (Nat Commun, 2023).
# How the values were obtained:
# [1] = target: T1, Adenosine receptor A1 (Homo sapiens, UniProt P30542)
# T1 sequence (P30542 whole entry): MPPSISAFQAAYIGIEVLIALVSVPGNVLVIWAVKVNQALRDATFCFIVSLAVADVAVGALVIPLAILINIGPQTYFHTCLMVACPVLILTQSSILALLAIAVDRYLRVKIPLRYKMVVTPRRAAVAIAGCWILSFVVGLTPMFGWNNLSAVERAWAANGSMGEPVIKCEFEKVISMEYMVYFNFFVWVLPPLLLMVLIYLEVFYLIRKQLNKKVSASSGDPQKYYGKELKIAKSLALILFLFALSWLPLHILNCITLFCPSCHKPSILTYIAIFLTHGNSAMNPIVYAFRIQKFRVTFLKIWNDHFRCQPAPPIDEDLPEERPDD
# [2] = target: T2, Alpha-1A adrenergic receptor (Homo sapiens, UniProt P35348); format: functional, cell-based
# T2 sequence (P35348 whole entry): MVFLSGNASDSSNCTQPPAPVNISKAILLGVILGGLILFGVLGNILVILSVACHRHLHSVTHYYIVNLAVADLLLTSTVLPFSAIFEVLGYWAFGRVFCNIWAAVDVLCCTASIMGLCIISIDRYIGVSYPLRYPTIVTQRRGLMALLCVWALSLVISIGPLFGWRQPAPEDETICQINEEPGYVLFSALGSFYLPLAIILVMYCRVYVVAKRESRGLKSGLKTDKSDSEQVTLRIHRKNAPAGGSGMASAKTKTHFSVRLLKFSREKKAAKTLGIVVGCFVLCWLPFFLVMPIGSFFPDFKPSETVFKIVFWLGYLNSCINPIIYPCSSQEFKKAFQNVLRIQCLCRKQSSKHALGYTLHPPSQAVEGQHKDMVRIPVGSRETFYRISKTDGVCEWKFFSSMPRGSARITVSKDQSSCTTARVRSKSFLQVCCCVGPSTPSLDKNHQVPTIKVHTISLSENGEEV
# [3] = target: T3, B2 bradykinin receptor (Homo sapiens, UniProt P30411)
# T3 sequence (P30411 whole entry): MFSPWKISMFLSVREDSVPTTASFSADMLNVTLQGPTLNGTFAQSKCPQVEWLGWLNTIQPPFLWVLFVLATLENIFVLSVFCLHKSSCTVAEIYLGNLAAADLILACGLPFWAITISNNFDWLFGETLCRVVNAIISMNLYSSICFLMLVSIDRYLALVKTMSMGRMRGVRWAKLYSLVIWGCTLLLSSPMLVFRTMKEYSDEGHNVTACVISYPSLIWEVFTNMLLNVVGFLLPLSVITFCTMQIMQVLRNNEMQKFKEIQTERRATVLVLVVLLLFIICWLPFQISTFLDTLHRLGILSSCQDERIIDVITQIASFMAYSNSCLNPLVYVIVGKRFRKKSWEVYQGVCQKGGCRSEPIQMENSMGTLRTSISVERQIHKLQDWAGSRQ
# [4] = target: T4, Estrogen receptor (Homo sapiens, UniProt P03372)
# T4 sequence (P03372 whole entry): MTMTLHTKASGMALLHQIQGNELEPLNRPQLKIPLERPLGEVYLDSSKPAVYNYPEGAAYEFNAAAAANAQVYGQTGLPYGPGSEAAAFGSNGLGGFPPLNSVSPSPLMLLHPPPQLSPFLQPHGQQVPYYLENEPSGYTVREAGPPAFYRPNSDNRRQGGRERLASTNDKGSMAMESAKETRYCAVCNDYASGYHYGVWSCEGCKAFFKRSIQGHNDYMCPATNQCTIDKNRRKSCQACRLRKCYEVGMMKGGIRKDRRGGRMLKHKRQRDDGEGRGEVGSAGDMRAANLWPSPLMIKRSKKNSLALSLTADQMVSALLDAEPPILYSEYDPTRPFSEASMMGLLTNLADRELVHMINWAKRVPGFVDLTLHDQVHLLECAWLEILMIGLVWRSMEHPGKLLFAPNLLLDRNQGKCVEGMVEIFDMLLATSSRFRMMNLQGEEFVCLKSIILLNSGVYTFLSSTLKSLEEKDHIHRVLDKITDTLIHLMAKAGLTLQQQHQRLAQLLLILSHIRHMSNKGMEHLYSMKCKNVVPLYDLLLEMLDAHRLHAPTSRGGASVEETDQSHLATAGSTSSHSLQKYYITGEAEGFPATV
# [5] = target: Melanocortin receptor 3 (Homo sapiens, UniProt P41968)
# Further: assay procedure not described here.
# Melanocortin receptor 3, sequence (P41968 whole entry): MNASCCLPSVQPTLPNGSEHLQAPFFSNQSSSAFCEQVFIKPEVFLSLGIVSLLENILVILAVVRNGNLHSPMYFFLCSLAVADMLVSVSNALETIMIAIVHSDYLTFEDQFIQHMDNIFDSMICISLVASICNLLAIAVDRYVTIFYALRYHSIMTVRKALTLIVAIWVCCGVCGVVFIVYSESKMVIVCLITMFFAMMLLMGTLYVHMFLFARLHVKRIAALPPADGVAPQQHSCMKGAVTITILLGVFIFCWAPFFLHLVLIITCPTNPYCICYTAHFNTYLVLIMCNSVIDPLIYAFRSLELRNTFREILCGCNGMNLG
SMILES,AC50 [1],AC50 [2],AC50 [3],AC50 [4],AC50 [5]
O=C(O)COCCN1CCN(C(c2ccccc2)c2ccc(Cl)cc2)CC1 (configuration not stated) [CETIRIZINE],> 30 µM,> 30 µM,> 30 µM,> 30 µM,> 30 µM
C[C@@H]1C[C@H]2[C@@H]3C[C@H](F)C4=CC(=O)C=C[C@]4(C)[C@H]3[C@@H](O)C[C@]2(C)[C@@]1(O)C(=O)CO [PARAMETHASONE],–,> 30 µM,–,> 30 µM,–
CCC[C@H](N[C@@H](C)C(=O)N1[C@H](C(=O)O)C[C@@H]2CCCC[C@@H]21)C(=O)OCC [PERINDOPRIL],–,> 30 µM,–,> 30 µM,–
NNCCc1ccccc1 [PHENELZINE],–,11.5 µM,–,> 30 µM,–
N[C@@H](Cc1ccccc1)C(=O)O [PHENYLALANINE],–,> 30 µM,–,> 30 µM,–
CCCn1cnc2c1c(=O)n(CCCCC(C)=O)c(=O)n2C [PROPENTOFYLLINE],–,> 30 µM,–,28.9 µM,–
Clc1ccc(C(Cn2ccnc2)OCc2csc3c(Cl)cccc23)c(Cl)c1 (configuration not stated) [SERTACONAZOLE],–,24.3 µM,–,> 30 µM,–
CC(OCCN1CCCCCC1)(c1ccccc1)c1ccc(Cl)cc1 (configuration not stated) [SETASTINE],–,28.1 µM,–,> 30 µM,–
COc1cc(C)c2c(Oc3cccc(C(F)(F)F)c3)c(OC)cc(NC(C)CCCN)c2n1 (configuration not stated) [TAFENOQUINE],–,> 3 µM,–,18.4 µM,–
CCCSc1nc(N[C@@H]2C[C@H]2c2ccc(F)c(F)c2)c2nnn([C@@H]3C[C@H](OCCO)[C@@H](O)[C@H]3O)c2n1 [TICAGRELOR],–,> 30 µM,–,> 30 µM,–
c1ccc2c(SC3=NCCN3)c[nH]c2c1 [TINAZOLINE],–,0.003 µM,–,> 30 µM,–
Cc1ccc(C(=O)C(C)CN2CCCCC2)cc1 (configuration not stated) [TOLPERISONE],–,> 30 µM,–,> 30 µM,–
